In patent publication US6369094B1, “Polymorphic salt” (Pfizer Inc., priority 1999, dated 2002):
In brackets after ≈: the same amount, converted by molar mass. Where a name gives a salt, the structure may show the parent alone.

Experiments:
[1] = assay type: physicochemical; conditions: pH 6
[2] = Hygroscopicity study: moisture sorption by Dynamic Vapour Sorption (DVS); assay type: physicochemical; conditions: 0 to 75% RH, 30° C.
Procedure: The moisture sorptions of the three known polymorphs (α-form, β-form and present invention) of the hemisulphate of 3-(N-methyl-2(R)-pyrrolidinylmethyl)-5-(2-phenylsulphonylethyl)-1H-indole were determined using a Dynamic Vapour Sorption (DVS) Automated Sorption Analyser Model DVS-1 manufactured by Surface Measurements Systems Ltd, UK. Each polymorph was analysed by accurately weighing approximately 25 mg into the sample pan which was then exposed to humidities in the range 0 to 75% RH. The analysis temperature was 30° C. with a nitrogen flow rate of 200 cm^3 min^−1.

[3] = Compression studies in an IR bench press; assay type: physicochemical; conditions: 5 tonnes for 1 minute, 13 mm punch and die set
[4] = Stability study: polymorphic form re-examined by PXRD and DSC; assay type: physicochemical; conditions: stored for seven months under ambient conditions
[5] = as described in European Patent 0776323; cited from earlier work
[6] = listed as hemisulphate polymorph of the present invention

Compound	solubility [1] [mg/mL]	hygroscopicity (moisture sorption) [2]	hygroscopicity (moisture sorption) [2, 6]	colour change and punch filming upon compression [3]	colour change and punch filming upon compression [3, 6]	polymorphic stability (PXRD and DSC) [4]	polymorphic stability (PXRD and DSC) [4, 6]	colour change and punch filming during tabletting [5]	hygroscopicity [5]	polymorphic stability [5]
CN1CCC[C@@H]1Cc1c[nH]c2ccc(CCS(=O)(=O)c3ccccc3)cc12 [hydrobromide, 3-(N-methyl-2(R)-pyrrolidinylmethyl)-5-(2-phenylsulphonylethyl)-1H-indole, reference compound]	2.90	–	–	–	–	–	–	–	–	–
CN1CCC[C@@H]1Cc1c[nH]c2ccc(CCS(=O)(=O)c3ccccc3)cc12 [polymorph of the invention, 3-(N-methyl-2(R)-pyrrolidinylmethyl)-5-(2-phenylsulphonylethyl)-1H-indole]	478 (≈ 1250 mM)	markedly less hygroscopic than either the α- or β-form	negligible hygroscopicity	no significant colour change and no evidence of punch filming	no significant colour change or punch filming	totally unchanged	no change in its polymorphic form	–	–	–
CN1CCC[C@@H]1Cc1c[nH]c2ccc(CCS(=O)(=O)c3ccccc3)cc12 [α-polymorph, 3-(N-methyl-2(R)-pyrrolidinylmethyl)-5-(2-phenylsulphonylethyl)-1H-indole]	–	–	–	–	–	–	–	giving rise to colour change and punch filming	hygroscopic	polymorphically unstable
